This is an account of results in patent US10456400B2, “Aza-ellipticine analogs, methods of synthesis and methods of treatment” (MUSC FOUNDATION FOR RESEARCH DEVELOPMENT, priority 2014, dated 2019).

pEC50: −log10 of the molar value. Where two headings read alike, the source gives them in different places.

Series [1] can be described thus: Cytotoxicity in MCF-7 cells (72 h treatment, Hoechst 33342 staining, IN Cell Analyzer imaging). It is filed as cell-based, Human. The settings on record: human. Here is the method:
(§1) Human mammary cancer MCF-7 cells were maintained under standard conditions using Dulbecco's Modified Eagle Medium Nutrient Mixture F12 (DMEM-F12, GIBCO #12400-024) accompanied by 10% fetal calf serum (FCS, Atlanta Biologicals #S 11550). Cells were cultured to 80% confluency before being lifted with 0.05% Trypsin/EDTA (GIBCO #1404912) for 2 minutes, spun and resuspended in new media.
(§2) MCF7 cells were seeded at a density of 10,000 cells per well in 96 well plates (BD Falcon #353220). Cells were grown for 24 h, washed in phosphate-buffered saline (PBS, Life Technologies #14080-055), media was then replaced with DMEM-F12 at 5% FCS. At this time Ellipticine, including Aza-Ellipticine compounds, were added from a treatment plate (3 μL per condition) for a total volume of 150 μL (final concentrations of 0.1, 1, 3, 10 μM) and were incubated under standard conditions for an additional 72 h.
(§3) After 72 h of treatment with drugs, cells were fixed by adding 50 μL of 10% Buffered Formalin Phosphate and stained with 2 μM Hoechst 33342 (AnaSpec #83218) stock (20000×) to media for 1 h. Images were then captured with the IN Cell Analyzer 2000 (GE Healthcare UK Ltd., Buckinghamshire, UK).

The test system of series [2] is Human mammary cancer MCF-7 cells. The series is described as above. It is filed as cell-based. The method, then: as §1, §2, §3
The conditions of series [3]: Ramkumar and Nagarajan, 2014; cited from earlier work.

For the compound `CCCCc1c2ncccc2nc2[nH]c3ccc(OC)cc3c12` [Example 18, 11-butyl-9-methoxy-6H-indolo[2,3-b][1,5]naphthyridine], the EC50 at 72 h in series [1] came out at 1000 nM. Take `Cc1ccc2[nH]c3nc4cccnc4cc3c2c1` [Example 17, 9-methyl-6H-indolo[2,3-b][1,5]naphthyridine]: the concentration giving a half-maximal response (EC50) at 72 h in series [1] was 900 nM. As for `COc1ccc2[nH]c3nc4cnccc4cc3c2c1` [Example 13, 7-methoxy-10H-indolo[2,3-b][1,7]naphthyridine], the half-maximal effective concentration (EC50) at 72 h in series [1] is 17000 nM. As for `Cc1c2ccncc2c(C)c2c1[nH]c1ccc(O)cc12` [9-Hydroxy ellipticine, reference compound], the negative-log EC50 (pEC50) in series [2] (MCF-7 cells, 72 h treatment, 5% FCS, concentrations 0.1, 1, 3, 10 μM) was 6.05. In addition, in series [3], the “potency compared with parent ellipticine” value was “forty times more potent than its parent”. Consider `Oc1ccc2[nH]c3nc4cccnc4cc3c2c1` [Example 14, 6H-indolo[2,3-b][1,5]naphthyridin-9-ol], for which the EC50 at 72 h in series [1] came out at 5000 nM. For the compound `COc1cccc2c1[nH]c1nc3cccnc3cc12` [Example 15, 7-methoxy-6H-indolo[2,3-b][1,5]naphthyridine], in series [2], the “Cytotoxicity, EC50 (result in words)” value is given as “No effect”.

In the case of `c1ccc2c(c1)[nH]c1nc3cnccc3cc12` [Example 2, 10H-indolo[2,3-b][1,7]naphthyridine], in series [1], the 50% effective concentration (EC50) at 72 h is 6000 nM. `Cc1c2ccncc2c(C)c2c1[nH]c1ccccc12` [ellipticine]: the EC50 at 72 h in series [1] (MCF-7 cells, 72 h treatment, 5% FCS, concentrations 0.1, 1, 3, 10 μM, read-out: Cytotoxicity, EC50) turned out to be 1000 nM. `CC(=O)Oc1ccc2c(c1)c1cc3ncccc3nc1n2C(C)=O` [Example 19, 6-acetyl-6H-indolo[2,3-b][1,5]naphthyridin-9-yl acetate] displayed an EC50 at 72 h in series [1] of 1000 nM.

In series [1], `COc1ccc2[nH]c3nc4cccnc4c(C)c3c2c1` [Example 7, 9-methoxy-11-methyl-6H-indolo[2,3-b][1,5]naphthyridine] yielded an EC50 at 72 h of 14000 nM. Take `COc1ccc2[nH]c3nc4cccnc4cc3c2c1` [Example 12, 9-methoxy-6H-indolo[2,3-b][1,5]naphthyridine]: the concentration for a half-maximal effect (EC50) at 72 h in series [1] was 800 nM. Take `CCCn1c2ccc(OC)cc2c2cc3ncccc3nc21` [Example 8, 9-methoxy-6-propyl-6H-indolo[2,3-b][1,5]naphthyridine]: the EC50 at 72 h in series [1] was found to be 13300 nM.

Usually EC50 stands for the midpoint of the concentration-response curve. One may read the pEC50 as the negative decadic logarithm of the EC50, by convention in mol/L. Low readings indicate a high EC50, high ones a low EC50.
